Like-named read-outs stand apart in the source and are kept apart here.
Key:
[1] = solubility in water; type: physicochemical; conditions: neutral water
[2] = system: gram-negative bacteria; assay: bioassay of activity against gram-negative bacteria; type: cell-based
Protocol: Antimicrobial activity determination. A qualitative and quantitative bioassay for antimicrobial potency was done using the spot-on-lawn method. An indicator lawn was prepared by pouring 10 ml soft agar (seeded with 200 μl overnight indicator culture) onto tryptose agar as a basal medium, in a petri dish. Escherichia coli K-12 and Lactobacillus plantarum ATCC 8014 were generally used as the gram-negative and gram-positive sensitive indicators, respectively, but other bacteria were tested to determine the OSY-DF antimicrobial spectrum (Table 1). For qualitative tests, aliquots (10 μl) of cell-free culture supernatant (pH 6.5) were spotted on indicator lawns, and the plates were incubated overnight for inhibition area observation. A clear inhibition area of ≧3 mm in diameter was recorded as positive. For the quantitative measurements, the cell-free culture supernatant was twofold serially diluted and dilutions were spotted onto the indicator lawn as just described. Antimicrobial activity was expressed in AU/ml; these values are the reciprocal of the highest dilution displaying a clear zone of inhibition that corresponds to 1 ml of the nondiluted supernatant.
Separation and purification by HPLC of the OSY-DF peptide. […] Elution was monitored at a wavelength of 220 nm, and fractions were collected manually for the antimicrobial activity bioassay. […]

[3] = system: gram-negative bacteria; conditions: background statement; cited from earlier work
[4] = system: Pseudomonas aeruginosa; conditions: background statement; cited from earlier work
[5] = system: Acinetobacter baumannii; conditions: background statement; cited from earlier work

Compound | solubility in water [1] | solubility in water ([1]; listed as OSY-DF peptide) | activity against gram-negative bacteria [2] | activity against gram-negative bacteria [3] | activity against Pseudomonas aeruginosa [4] | activity against Acinetobacter baumannii [5]
C=C1NC(=O)C2CSC(C)C(NC(=O)C3CSC(C)C4NC(=O)[C@H](CC(C)C)NC(=O)C(NC(=O)[C@H](CCCCN)NC(=O)C5CSCC(NC(=O)[C@@H](NC(=O)[C@H](CCCCN)NC(=O)[C@@H](NC(=O)/C(=C/C)NC(=O)/C(=C/C)NC(=O)[C@H](CCCCN)NC(=O)[C@@H](NC(=O)[C@@H](NC(=O)C(=C)NC(=O)[C@H](C)NC(C)=O)[C@@H](C)CC)[C@@H](C)CC)[C@@H](C)CC)C(C)C)C(=O)N[C@@H](CCCCN)C(=O)N[C@@H](C)C(=O)N[C@@H](C(C)C)C(=O)N5)C(C)SCC(NC4=O)C(=O)N[C@@H]([C@@H](C)CC)C(=O)N3)C(=O)NCC(=O)NC(CSCC(C(=O)N[C@@H](CCCCN)C(=O)O)NC(=O)[C@H](CC(N)=O)NC1=O)C(=O)N2 (stereo partly drawn) [Paenibacillin, (CH3CO-^1A)-Dha-I-I-K-Dhb-Dhb-I-K-V-A-K-A-V-A-K-Abu-L-Abu-A-I-A-Abu-G-A-A-Dha-N-A-K^30] | easy to dissolve | readily soluble | – | – | – | –
polymyxin E1 | – | – | anti-gram-negative activity | specifically active | active | active
